Test results taken from US9179674B2, “Macrocyclic picolinamide compounds with fungicidal activity” (DOW AGROSCIENCES LLC, priority 2013, dated 2015).
Where two headings read alike, the source gives them in different places.

Tests used:
Puccinia triticina = assay: Wheat Brown Rust fungicidal activity (PUCCRT); assay type: in vivo; details: Puccinia triticina; for pest or weed control at 100 ppm: rate 100 ppm; for pest or weed control at 121.5 g/ha: rate 121.5 g/H
Protocol: Technical grades of materials were dissolved in acetone, which were then mixed with nine volumes of water containing 110 ppm Triton X-100. The fungicide solutions were applied onto wheat seedlings using an automated booth sprayer to run-off. All sprayed plants were allowed to air dry prior to further handling. All fungicides were evaluated using the aforementioned method for their activity vs. all target diseases. Wheat leaf blotch and brown rust activity were also evaluated using track spray applications, in which case the fungicides were formulated as EC formulations, containing 0.1% Trycol 5941 in the spray solutions. Wheat plants (variety Yuma) were grown from seed in a greenhouse in 50% mineral soil/50% soil-less Metro mix until the first leaf was fully emerged, with 7-10 seedlings per pot. These plants were inoculated with an aqueous spore suspension of Septoria tritici either prior to or after fungicide treatments. After inoculation the plants were kept in 100% relative humidity (one day in a dark dew chamber followed by two to three days in a lighted dew chamber at 20° C.) to permit spores to germinate and infect the leaf. The plants were then transferred to a greenhouse set at 20° C. for disease to develop. When disease symptoms were fully expressed on the 1st leaves of untreated plants, infection levels were assessed on a scale of 0 to 100 percent disease severity. Percent disease control was calculated using the ratio of disease severity on treated plants relative to untreated plants. Evaluation of Fungicidal Activity: Wheat Brown Rust (Puccinia triticina; Synonym: Puccinia recondite f sp. tritici; Bayer code PUCCRT) Wheat plants (variety Yuma) were grown from seed in a greenhouse in 50% mineral soil/50% soil-less Metro mix until the first leaf was fully emerged, with 7-10 seedlings per pot. These plants were inoculated with an aqueous spore suspension of Puccinia triticina either prior to or after fungicide treatments. After inoculation the plants were kept in a dark dew room at 22° C. with 100% relative humidity overnight to permit spores to germinate and infect the leaf. The plants were then transferred to a greenhouse set at 24° C. for disease to develop. Fungicide formulation, application and disease assessment followed the procedures as described in the Example A.

[1] = system: Mycosphaerella graminicola; Anamorph: Septoria tritici; assay: Leaf Blotch of Wheat fungicidal activity (SEPTTR); assay type: in vivo; details: Zymoseptoria tritici; for pest or weed control at 100 ppm: rate 100 ppm; for pest or weed control at 121.5 g/ha: rate 121.5 g/H
Protocol: Evaluation of Fungicidal Activity: Leaf Blotch of Wheat (Mycosphaerella graminicola; Anamorph: Septoria tritici; Bayer code […]) Technical grades of materials were dissolved in acetone, which were then mixed with nine volumes of water containing 110 ppm Triton X-100. The fungicide solutions were applied onto wheat seedlings using an automated booth sprayer to run-off. All sprayed plants were allowed to air dry prior to further handling. All fungicides were evaluated using the aforementioned method for their activity vs. all target diseases. Wheat leaf blotch and brown rust activity were also evaluated using track spray applications, in which case the fungicides were formulated as EC formulations, containing 0.1% Trycol 5941 in the spray solutions. Wheat plants (variety Yuma) were grown from seed in a greenhouse in 50% mineral soil/50% soil-less Metro mix until the first leaf was fully emerged, with 7-10 seedlings per pot. These plants were inoculated with an aqueous spore suspension of Septoria tritici either prior to or after fungicide treatments. After inoculation the plants were kept in 100% relative humidity (one day in a dark dew chamber followed by two to three days in a lighted dew chamber at 20° C.) to permit spores to germinate and infect the leaf. The plants were then transferred to a greenhouse set at 20° C. for disease to develop. When disease symptoms were fully expressed on the 1st leaves of untreated plants, infection levels were assessed on a scale of 0 to 100 percent disease severity. Percent disease control was calculated using the ratio of disease severity on treated plants relative to untreated plants.

[2] = 24 h, 1 Day Protectant, read-out: Disease control PUCCRT 1DP
[3] = 72 h, 3 Day Curative, read-out: Disease control PUCCRT 3DC
[4] = 24 h, 1 Day Protectant, read-out: Disease control SEPTTR 1DP
[5] = 72 h, 3 Day Curative, read-out: Disease control SEPTTR 3DC

SMILES	pest or weed control at 100 ppm (Puccinia triticina; [2])	pest or weed control at 121.5 g/ha (Puccinia triticina; [2])	pest or weed control at 100 ppm (Puccinia triticina; [3])	pest or weed control at 121.5 g/ha (Puccinia triticina; [3])	pest or weed control at 100 ppm [1, 4]	pest or weed control at 121.5 g/ha [1, 4]	pest or weed control at 100 ppm [1, 5]	pest or weed control at 121.5 g/ha [1, 5]
COc1ccnc(C(=O)N[C@H]2COC[C@H](Cc3ccc(C(F)(F)F)cc3)[C@@H](OC3CCCC3)[C@H](C)OC2=O)c1OCOC(C)=O [Compound F100]	80 to 100%	80 to 100%	80 to 100%	0 to 80%	80 to 100%	80 to 100%	80 to 100%	0 to 80%
COc1ccnc(C(=O)N[C@H]2COC[C@H](CCc3ccccc3)[C@@H](Oc3ccc(C)cc3)[C@H](C)OC2=O)c1OC(C)=O [Compound F58]	80 to 100%	80 to 100%	80 to 100%	0 to 80%	80 to 100%	80 to 100%	80 to 100%	80 to 100%
COc1ccnc(C(=O)N[C@H]2COC[C@H](Cc3ccc(F)cc3)[C@@H](OCC(C)C)[C@H](C)OC2=O)c1O [Compound F21]	80 to 100%		80 to 100%		80 to 100%		80 to 100%	
COc1ccnc(C(=O)N[C@H]2COC[C@H](Cc3ccc(C(F)(F)F)cc3)[C@@H](OC(=O)C3CC3)[C@H](C)OC2=O)c1O [Compound F26]	0 to 80%				80 to 100%		0 to 80%	
COc1ccnc(C(=O)N[C@H]2COC[C@H](CCC(C)C)[C@@H](Oc3ccc(C)cc3)[C@H](C)OC2=O)c1OC(C)=O [Compound F69]	80 to 100%	80 to 100%	80 to 100%	0 to 80%	80 to 100%	80 to 100%	80 to 100%	80 to 100%
CCCCCO[C@@H]1[C@@H](Cc2ccc(C)cc2)COC[C@H](NC(=O)c2nccc(OC)c2OC(C)=O)C(=O)O[C@H]1C [Compound F53]	80 to 100%	80 to 100%	80 to 100%	0 to 80%	80 to 100%	80 to 100%	80 to 100%	0 to 80%
COc1ccnc(C(=O)N[C@H]2COC[C@H](Cc3ccc(C)cc3)[C@@H](OC3CCCC3)[C@H](C)OC2=O)c1OC(C)=O [Compound F64]	80 to 100%		80 to 100%		80 to 100%		80 to 100%	
CCCCCO[C@@H]1[C@@H](Cc2ccc(F)cc2)COC[C@H](NC(=O)c2nccc(OC)c2O)C(=O)O[C@H]1C [Compound F19]	80 to 100%		80 to 100%		80 to 100%		80 to 100%	
COc1ccnc(C(=O)N[C@H]2COC[C@H](Cc3ccc(F)cc3)[C@@H](OCCCC(F)(F)F)[C@H](C)OC2=O)c1O [Compound F17]	80 to 100%		0 to 80%		80 to 100%		80 to 100%	
COc1ccnc(C(=O)N[C@H]2COC[C@H](Cc3ccc(F)cc3)[C@@H](OC3CCCC3)[C@H](C)OC2=O)c1O [Compound F18]	80 to 100%		80 to 100%		80 to 100%		0 to 80%	
